Laboratory results published in patent US20250345276A1, “O/W-EMULSIONS COMPRISING SEMIFLUORINATED ALKANES” (NOVALIQ GMBH, priority 2011, published 2025).

What was measured:
[1] = test system: Candida albicans (ATCC 10231); assay: antimicrobial preservative effectiveness test in analogy to USP 32 <51>; format: cell-based; conditions: C. albicans; for cfu/mL 0 h: 0 h after inoculation; for cfu/mL 0 h / cfu/mL 24 h / cfu/mL 48 h: approx. 22.5° C.
Description: (§1) An antimicrobial preservative effectiveness test in analogy to that of USP 32 <51>was carried out. Sample vials prepared according to Examples 1, 3 and 4 were inoculated with Escherichia coli, Pseudomonas aeruginosa, Staphylococcus aureus, Candida albicans and Aspergillus niger and incubated at approx. 22.5° C. Commercially obtained samples of Disoprivan® were tested as comparators.
(§2) To determine whether the observed inhibition of microbial growth in the emulsions of the invention is an effect of the semifluorinated alkanes or the propofol, the test was repeated with a placebo emulsion containing no propofol, but only F6H8 in a higher concentration (40 wt.-%) and S75 in dextrose solution. Also tested were pure solutions of F6H8 and F4H5.

[2] = test system: Pseudomonas aeruginosa (ATCC 9027); assay: as above; format: cell-based; conditions: P. aeruginosa; for cfu/mL 0 h: 0 h after inoculation; for cfu/mL 0 h / cfu/mL 24 h / cfu/mL 48 h: approx. 22.5° C.
Description: as §1, §2

[3] = test system: Staphylococcus aureus (ATCC 6538); assay: as above; format: cell-based; conditions: S. aureus; for cfu/mL 0 h: 0 h after inoculation; for cfu/mL 0 h / cfu/mL 24 h / cfu/mL 48 h: approx. 22.5° C.
Description: as §1, §2

[4] = test system: Aspergillus niger (ATCC 16404); assay: as above; format: cell-based; conditions: A. niger; for cfu/mL 0 h: 0 h after inoculation; for cfu/mL 0 h / cfu/mL 24 h / cfu/mL 48 h: approx. 22.5° C.
Description: (§3) An antimicrobial preservative effectiveness test in analogy to that of USP 32 <51>was carried out. Sample vials prepared according to Examples 1, 3 and 4 were inoculated with Escherichia coli, Pseudomonas aeruginosa, Staphylococcus aureus, Candida albicans and Aspergillus niger and incubated at approx. 22.5° C. Commercially obtained samples of Disoprivan® were tested as comparators. […]

[5] = test system: Escherichia coli (ATCC 8739); assay: as above; format: cell-based; conditions: E. coli; for cfu/mL 0 h: 0 h after inoculation; for cfu/mL 0 h / cfu/mL 24 h / cfu/mL 48 h: approx. 22.5° C.
Description: as §3

[6] = miscibility of propofol with semifluorinated alkanes; format: physicochemical; conditions: over a wide temperature range
From the text: By virtue of the high solubility of propofol in semifluorinated alkanes, it is now possible to provide injectable propofol formulations having a high strength (or concentration of propofol), and thus require only a low volume of administration. This will also bring about an improved tolerability, since a lower administration volume inherently means a lower intake of excipients (such as emulsifiers).

[7] = hydroxyl group; cited from earlier work

## CCCCCC(F)(F)C(F)(F)C(F)(F)C(F)(F)F [Example F4H5]
[1]
  cfu/mL 0 h: 1 500 cfu/mL
  Change in log steps 24 h: ≤-1.2 log steps
  cfu/mL 24 h: <100 cfu/mL
  Change in log steps 48 h: ≤-1.1 log steps
  cfu/mL 48 h: <100 cfu/mL
[2]
  cfu/mL 0 h: 1 600 cfu/mL
  Change in log steps 24 h: ≤-1.2 log steps
  cfu/mL 24 h: <100 cfu/mL
  Change in log steps 48 h: ≤-1.2 log steps
  cfu/mL 48 h: <100 cfu/mL
[3]
  cfu/mL 0 h: 2 900 cfu/mL
  Change in log steps 24 h: ≤-1.4 log steps
  cfu/mL 24 h: <100 cfu/mL
  Change in log steps 48 h: ≤-1.4 log steps
  cfu/mL 48 h: <100 cfu/mL
[4]
  cfu/mL 0 h: 3 000 cfu/mL
  Change in log steps 24 h: ≤-1.4 log steps
  cfu/mL 24 h: <100 cfu/mL
  Change in log steps 48 h: ≤-1.2 log steps
  cfu/mL 48 h: <100 cfu/mL
  Change in log steps 6 d: ≤-1.2 log steps
  cfu/mL 6 d: <100 cfu/mL
[5]
  cfu/mL 0 h: 1 600 cfu/mL
  Change in log steps 24 h: ≤-1.2 log steps
  cfu/mL 24 h: <100 cfu/mL
  Change in log steps 48 h: ≤-1.2 log steps
  cfu/mL 48 h: <100 cfu/mL
[6]
  miscibility of propofol with the semifluorinated alkane: fully miscible

## CCCCCCC(F)(F)C(F)(F)C(F)(F)C(F)(F)F [Example F4H6]
[6]
  miscibility of propofol with the semifluorinated alkane: fully miscible

## CCCCCCCCC(F)(F)C(F)(F)C(F)(F)C(F)(F)C(F)(F)C(F)(F)F [Example F6H8]
[1]
  cfu/mL 0 h: 1 500 cfu/mL
  Change in log steps 24 h: ≤-1.2 log steps
  cfu/mL 24 h: <100 cfu/mL
  Change in log steps 48 h: ≤-1.1 log steps
  cfu/mL 48 h: <100 cfu/mL
[2]
  cfu/mL 0 h: 1 600 cfu/mL
  Change in log steps 24 h: ≤-1.2 log steps
  cfu/mL 24 h: <100 cfu/mL
  Change in log steps 48 h: ≤-1.2 log steps
  cfu/mL 48 h: <100 cfu/mL
[3]
  cfu/mL 0 h: 2 900 cfu/mL
  Change in log steps 24 h: ≤-1.4 log steps
  cfu/mL 24 h: <100 cfu/mL
  Change in log steps 48 h: ≤-1.4 log steps
  cfu/mL 48 h: <100 cfu/mL
[4]
  cfu/mL 0 h: 1 500 cfu/mL
  Change in log steps 24 h: ≤-1.2 log steps
  cfu/mL 24 h: <100 cfu/mL
  Change in log steps 48 h: ≤-1.2 log steps
  cfu/mL 48 h: <100 cfu/mL
  Change in log steps 6 d: ≤-1.2 log steps
  cfu/mL 6 d: <100 cfu/mL
[5]
  cfu/mL 0 h: 1 600 cfu/mL
  Change in log steps 24 h: ≤-1.2 log steps
  cfu/mL 24 h: <100 cfu/mL
  Change in log steps 48 h: ≤-1.2 log steps
  cfu/mL 48 h: <100 cfu/mL
[6]
  miscibility of propofol with the semifluorinated alkane: fully miscible

## CC(C)c1cccc(C(C)C)c1O [propofol, 2,6-diisopropylphenol]
[7]
  pKa: 11
